Assays:
[1] = system: Streptococcus mutans (ATCC25175) biofilm; assay: Bactericidal effect on cariogenic bacteria-formed biofilms, surviving cells in the biofilm; format: cell-based; conditions: Example 3, 37°C, 20 min
Experimental: Either water containing oxygen-filled ultrafine bubbles prepared as described above or purified water was used to dilute povidone iodine to condition the same to 1.0 mg/mL and 10 mg/mL.
Streptococcus mutans (ATCC25175) was grown in a Tryptic soy Broth supplemented with 0.5% yeast extract (the resulting medium is hereinafter referred to as TSBY medium) at 37° C. until the OD660 was between 0.6 and 0.8 (10^8 cells/mL); the product was used as a test bacterial liquid.
A TSBY medium (plus 1% sucrose) placed in a test tube in a volume of 4950 μL was inoculated with 50 μL of the test bacterial liquid and was cultured at 37° C. for 18 hours to form a biofilm.
From the test tube in which the biofilm was formed, the culture broth was removed by means of an aspirator and the biofilm was washed with 5 mL of an added PBS. After removing the PBS, 5 mL of the test liquid was treated for reaction as it was shaken with a shaking machine (37° C.×20 min). After the 20-min reaction, 5 mL of 0.4% (w/v) sodium thiosulfate in solution was added into the test tube so as to inactivate the bactericidal agent. Using a sonicator, the biofilm was detached from the inner surfaces of the test tube and dispersed with a vortex mixer thereby prepare a sample liquid for cell count; the number of surviving cells in the biofilm was then counted.
The sample liquids for cell count were diluted with a buffer solution; after culture in an MS agar medium (37° C.×36-48 hours), the number of colonies formed was counted to determine the number of surviving cells in the biofilms.
To obtain those results, the test was replicated in 5 runs (n=5).

[2] = system: Pseudomonas aeruginosa NBRC13275; assay: Bactericidal test on carriers with adhered Pseudomonas aeruginosa and dried organic substance (AOAC Official Method 964.02), surviving cell count; Examples 1, 4, 5; format: cell-based
Experimental: The test was conducted in accordance with AOAC Official Method 964.02 Testing Disinfectants against Pseudomonas aeruginosa.
The water prepared as described above to contain oxygen-filled ultrafine bubbles or the purified water of the Japanese Pharmacopoeia was used to dilute povidone iodine such that it was conditioned to 100 mg/L.
A cryopreserved bacterial strain (Pseudomonas aeruginosa NBRC13275) was grown in a tryptic soy agar (Difco; hereinafter referred to as TSA medium) at 36±1° C. for 18-24 hours. The grown cells were transplanted into a tryptic soy broth (Difco; hereinafter referred to as TSB medium) where they were cultured at 36±1° C. for 18-24 hours. The liquids of the thus cultured cells were conditioned with a TSB medium to an approximate value of 10^6 CFU/mL and the resulting liquids were used as test bacterial liquids.
A sterile bioassay cup (stainless steel Penicillin Cup 441-01 made by Sogo Rikagagu glass; hereinafter designated as a carrier) was placed in a 100-mL beaker, into which test bacterial liquids were poured in such amounts that the carrier would be completely immersed (ca. 30-40 mL). After allowing the beaker to stand for 10-15 minutes, the carrier was transferred onto a Petri dish with sterile filter paper spread on the bottom and by allowing the Petri dish to stand at 36±1° C. for 40±2 minutes, the bacterial cells and the organic substance derived from the mediums were dried and adhered to the carrier.
The test liquids preliminarily held at 25±2° C. were each dispensed in 10 mL into centrifugal tubes having a capacity of 50 mL; using a hook of platinum wire, the carriers to which the test bacterium adhered were put into the centrifugal tubes, one for each, and allowed to act at 25±2° C. for 20 minutes. Thereafter, the carriers were transferred into centrifugal tubes containing 10 mL of an inactivator SCDLP medium (Eiken Chemical Co., Ltd.), one for each, so as to inactivate the bactericidal component in the test liquid adhering to the carrier. The carriers were then treated with a sonicator at 20±2° C. for 5 minutes to wash off the test bacterium; the test liquids were agitated for an additional minute with a vortex mixer to prepare sample liquids for cell count and the number of surviving cells was counted. A control was prepared by the same procedure as described above, except that the test liquids were replaced by sterile physiological saline.
The sample liquids for cell count (stock liquids) were serially diluted 10-fold with sterile physiological saline; the sample liquids or the series of dilutions, each weighing a volume of 1 mL, were transferred aseptically into Petri dishes and, after mixing with 20 mL of a TSA medium, they were solidified and cultured at 36±1° C. for 48 hours. Thereafter, colonies growing on the medium were counted to determine the number of surviving cells per carrier (lower limit for quantification: 10 CFU/carrier).
To obtain those results, the test was replicated in five runs (n=5) and after eliminating minimum and maximum values, an averaged cell count for n=3 was indicated as a logarithmic value.
An experiment was conducted by the same method as in Example 1, except for the following points: water containing oxygen-filled ultrafine bubbles prepared as described above or purified water was used to dilute povidone iodine such that it was conditioned to 100 mg/L; in addition, the most frequent particle density of the water containing ultrafine bubbles were adjusted to orders of 10^4, 10^5, 10^6, and 10^8 per mL.
An experiment was conducted by the same method as in Example 1, except that water containing atmospheric air- or C3F8-filled ultrafine bubbles prepared as described above or purified water was used to dilute povidone iodine such that it was conditioned to 100 mg/L.

[3] = povidone iodine concentration 1 (table head mg/L; text 1.0 mg/mL) conditioned with water (purified water)
[4] = povidone iodine concentration 1 (table head mg/L; text 1.0 mg/mL) conditioned with water containing oxygen-filled ultrafine bubbles (100 nm; 2.0x10^7, total 1.6x10^9 particles/ml)
[5] = povidone iodine concentration 10 (table head mg/L; text 10 mg/mL) conditioned with water (purified water)
[6] = povidone iodine concentration 10 (table head mg/L; text 10 mg/mL) conditioned with water containing oxygen-filled ultrafine bubbles (100 nm; 2.0x10^7, total 1.6x10^9 particles/ml)
[7] = Example 1, povidone iodine 100 mg/L conditioned with water (purified water), 25°C, 20 min
[8] = Example 1, povidone iodine 100 mg/L conditioned with water containing oxygen-filled ultrafine bubbles (91 nm; 3.1x10^8, total 2.3x10^10 particles/ml), 25°C, 20 min
[9] = Example 4, povidone iodine 100 mg/L conditioned with water (purified water)
[10] = Example 4, povidone iodine 100 mg/L, water containing oxygen-filled ultrafine bubbles, 81 nm, most frequent particle density 7.2 × 10^4, total 4.2 × 10^6 particles/ml
[11] = Example 4, povidone iodine 100 mg/L, water containing oxygen-filled ultrafine bubbles, 81 nm, most frequent particle density 7.2 × 10^5, total 4.2 × 10^7 particles/ml
[12] = Example 4, povidone iodine 100 mg/L, water containing oxygen-filled ultrafine bubbles, 81 nm, most frequent particle density 7.2 × 10^6, total 4.2 × 10^8 particles/ml
[13] = Example 4, povidone iodine 100 mg/L, water containing oxygen-filled ultrafine bubbles, 81 nm, most frequent particle density 7.2 × 10^8, total 4.2 × 10^10 particles/ml
[14] = Example 5, povidone iodine 100 mg/L conditioned with water (purified water)
[15] = Example 5, povidone iodine 100 mg/L, water containing C3F8-filled ultrafine bubbles (76 nm; 2.7x10^8, total 1.3x10^10 particles/ml)
[16] = Example 5, povidone iodine 100 mg/L, water containing atmospheric air-filled ultrafine bubbles (75 nm; 5.7x10^8, total 4.6x10^10 particles/ml)

povidone iodine
Cell count CFU average [1, 3]: 616.6 CFU | Cell count CFU n1 [1, 3]: 612 CFU | Cell count CFU n2 [1, 3]: 439 CFU | Cell count CFU n3 [1, 3]: 1050 CFU | Cell count CFU n4 [1, 3]: 386 CFU | Cell count CFU n5 [1, 3]: 596 CFU | Cell count CFU average [1, 4]: 149.2 CFU | Cell count CFU n1 [1, 4]: 250 CFU | Cell count CFU n2 [1, 4]: 35 CFU | Cell count CFU n3 [1, 4]: 178 CFU | Cell count CFU n4 [1, 4]: 150 CFU | Cell count CFU n5 [1, 4]: 133 CFU | Cell count CFU average [1, 5]: 9.2 CFU | Cell count CFU n1 [1, 5]: 9 CFU | Cell count CFU n2 [1, 5]: 22 CFU | Cell count CFU n3 [1, 5]: 13 CFU | Cell count CFU n4 [1, 5]: 0 CFU | Cell count CFU n5 [1, 5]: 2 CFU | Cell count CFU average [1, 6]: 0 CFU | Cell count CFU n1 [1, 6]: 0 CFU | Cell count CFU n2 [1, 6]: 0 CFU | Cell count CFU n3 [1, 6]: 0 CFU | Cell count CFU n4 [1, 6]: 0 CFU | Cell count CFU n5 [1, 6]: 0 CFU | Cell count CFU/carrier average [2, 7]: 8000 CFU/carrier | Cell count CFU/carrier n1 [2, 7]: 23000 CFU/carrier | Cell count CFU/carrier n2 [2, 7]: 19000 CFU/carrier | Cell count CFU/carrier n3 [2, 7]: 26000 CFU/carrier | log value (averaged surviving cell count as logarithmic value) [2, 7]: 3.9 | Cell count CFU/carrier average [2, 8]: 23 CFU/carrier | Cell count CFU/carrier n1 [2, 8]: 10 CFU/carrier | Cell count CFU/carrier n2 [2, 8]: 10 CFU/carrier | Cell count CFU/carrier n3 [2, 8]: 50 CFU/carrier | log value (averaged surviving cell count as logarithmic value) [2, 8]: 1.4 | Cell count CFU/carrier average [2, 9]: 44000 CFU/carrier | Cell count CFU/carrier n1 [2, 9]: 46000 CFU/carrier | Cell count CFU/carrier n2 [2, 9]: 47000 CFU/carrier | Cell count CFU/carrier n3 [2, 9]: 39000 CFU/carrier | Log value [2, 9]: 4.6 | Cell count CFU/carrier average [2, 10]: 5300 CFU/carrier | Cell count CFU/carrier n1 [2, 10]: 5900 CFU/carrier | Cell count CFU/carrier n2 [2, 10]: 2200 CFU/carrier | Cell count CFU/carrier n3 [2, 10]: 7700 CFU/carrier | Log value [2, 10]: 3.7 | Observed bactericidal efficacy [2, 10]: Δ | Cell count CFU/carrier average [2, 11]: <10 CFU/carrier | Cell count CFU/carrier n1 [2, 11]: 4200 CFU/carrier | Cell count CFU/carrier n2 [2, 11]: <10 CFU/carrier | Cell count CFU/carrier n3 [2, 11]: <10 CFU/carrier | Log value [2, 11]: 3.1 | Observed bactericidal efficacy [2, 11]: ○ | Cell count CFU/carrier average [2, 12]: <10 CFU/carrier | Cell count CFU/carrier n1 [2, 12]: <10 CFU/carrier | Cell count CFU/carrier n2 [2, 12]: <10 CFU/carrier | Cell count CFU/carrier n3 [2, 12]: <10 CFU/carrier | Log value [2, 12]: <1.0 | Observed bactericidal efficacy [2, 12]: ○ | Cell count CFU/carrier average [2, 13]: <10 CFU/carrier | Cell count CFU/carrier n1 [2, 13]: <10 CFU/carrier | Cell count CFU/carrier n2 [2, 13]: <10 CFU/carrier | Cell count CFU/carrier n3 [2, 13]: <10 CFU/carrier | Log value [2, 13]: <1.0 | Observed bactericidal efficacy [2, 13]: ○ | Cell count CFU/carrier average [2, 14]: 4500 CFU/carrier | Cell count CFU/carrier n1 [2, 14]: 3200 CFU/carrier | Cell count CFU/carrier n2 [2, 14]: 1800 CFU/carrier | Cell count CFU/carrier n3 [2, 14]: 8600 CFU/carrier | Log value [2, 14]: 3.7 | Cell count CFU/carrier average [2, 15]: <10 CFU/carrier | Cell count CFU/carrier n1 [2, 15]: <10 CFU/carrier | Cell count CFU/carrier n2 [2, 15]: <10 CFU/carrier | Cell count CFU/carrier n3 [2, 15]: <10 CFU/carrier | Log value [2, 15]: 1.0 | Cell count CFU/carrier average [2, 16]: 32 CFU/carrier | Cell count CFU/carrier n1 [2, 16]: 10 CFU/carrier | Cell count CFU/carrier n2 [2, 16]: 75 CFU/carrier | Cell count CFU/carrier n3 [2, 16]: <10 CFU/carrier | Log value [2, 16]: 1.5

Source: patent publication US9220799B2, “Bactericidal agent composition” (SUNSTAR ENGINEERING INC., priority 2012, dated 2015)
